Like-named read-outs stand apart in the source and are kept apart here.
System: SARS-CoV-2 strain USA-WA1/2020
Test: microbe, parasite or virus in culture
Assay type: cell-based
Settings: Severe acute respiratory syndrome coronavirus 2, HeLa-ACE2, 24 h, HeLa-ACE2 cells, SARS-CoV-2 infection, 24 h, read-out: EC50, uM (Hela)

Structure (SMILES)	EC50	EC50 (class symbols)	further results
CC(C)C[C@H](NC(=O)[C@H](O)c1ccccc1F)C(=O)N[C@@H](C[C@@H]1CCNC1=O)C(=O)COC(F)(F)F [Compound 408, (S)-2-((R)-2-(2-fluorophenyl)-2-hydroxyacetamido)-4-methyl-N-((S)-3-oxo-1-((S)-2-oxopyrrolidin-3-yl)-4-(trifluoromethoxy)butan-2-yl)pentanamide]	< 0.05 µM	–	–
CC(C)C(F)(F)C(=O)N1CC2(CC2)C[C@H]1C(=O)N[C@@H](C[C@@H]1CCNC1=O)C(=O)COC(F)(F)F [Compound 714, (S)-5-(2,2-difluoro-3-methylbutanoyl)-N-((S)-3-oxo-1-((S)-2-oxopyrrolidin-3-yl)-4-(trifluoromethoxy)butan-2-yl)-5-azaspiro[2.4]heptane-6-carboxamide]	< 0.05 µM	–	–
Cc1ccccc1NC(=O)C(=O)N[C@@H](Cc1ccccn1)C(=O)N[C@@H](C[C@@H]1CCNC1=O)C(=O)COc1c(F)c(F)cc(F)c1F [Compound 148, N1-((S)-1-oxo-1-(((S)-3-oxo-1-((S)-2-oxopyrrolidin-3-yl)-4-(2,3,5,6-tetrafluorophenoxy)butan-2-yl)amino)-3-(pyridin-2-yl)propan-2-yl)-N2-(o-tolyl)oxalamide]	–	0.05 to 0.2 µM	–
COC1(C(=O)N2CC3(CC3)C[C@H]2C(=O)N[C@@H](C[C@@H]2CCNC2=O)C(=O)COC(F)(F)F)CCC(F)(F)CC1 [Compound 646, (S)-5-(4,4-difluoro-1-methoxycyclohexane-1-carbonyl)-N-((S)-3-oxo-1-((S)-2-oxopyrrolidin-3-yl)-4-(trifluoromethoxy)butan-2-yl)-5-azaspiro[2.4]heptane-6-carboxamide]	< 0.05 µM	–	–
CC(C)C[C@H](NC(=O)c1cc2cnccc2[nH]1)C(=O)N[C@@H](C[C@@H]1CCNC1=O)C(=O)COC(F)(F)F [Compound 200, N-((S)-4-methyl-1-oxo-1-(((S)-3-oxo-1-((S)-2-oxopyrrolidin-3-yl)-4-(trifluoromethoxy)butan-2-yl)amino)pentan-2-yl)-1H-pyrrolo[3,2-c]pyridine-2-carboxamide]	–	0.2 to 0.5 µM	–
COc1cccc(NC(=O)C(=O)N[C@@H](CC(C)C)C(=O)N[C@@H](C[C@@H]2CCNC2=O)C(=O)COC(F)(F)F)c1 [Compound 188, N1-(3-methoxyphenyl)-N2-((S)-4-methyl-1-oxo-1-(((S)-3-oxo-1-((S)-2-oxopyrrolidin-3-yl)-4-(trifluoromethoxy)butan-2-yl)amino)pentan-2-yl)oxalamide]	–	< 0.05 µM	–
O=C1NCC[C@H]1C[C@H](NC(=O)[C@@H]1CC2(CC2)CN1C(=O)[C@@H](O)CC(C(F)(F)F)C(F)(F)F)C(=O)COC(F)(F)F [Compound 745, (S)-N-((S)-3-oxo-1-((S)-2-oxopyrrolidin-3-yl)-4-(trifluoromethoxy)butan-2-yl)-5-((S)-5,5,5-trifluoro-2-hydroxy-4-(trifluoromethyl)pentanoyl)-5-azaspiro[2.4]heptane-6-carboxamide]	< 0.05 µM	–	–
CC(C)C[C@H](NC(=O)C(=O)Nc1ccccc1)C(=O)N[C@@H](C[C@@H]1CCNC1=O)C(=O)COc1c(F)c(F)cc(F)c1F [Compound 10, N1-((S)-4-methyl-1-oxo-1-(((S)-3-oxo-1-((S)-2-oxopyrrolidin-3-yl)-4-(2,3,5,6-tetrafluorophenoxy)butan-2-yl)amino)pentan-2-yl)-N2-phenyloxalamide]	–	< 0.05 µM	–
CC[C@@H](O)C(=O)N[C@@H](CC1(C)CC1)C(=O)N[C@@H](C[C@@H]1CCNC1=O)C(=O)COC(F)(F)F [Compound 376, (R)-2-hydroxy-N-((S)-3-(1-methylcyclopropyl)-1-oxo-1-(((S)-3-oxo-l-((S)-2-oxopyrrolidin-3-yl)-4-(trifluoromethoxy)butan-2-yl)amino)propan-2-yl)butanamide]	–	–	EC50 (bound printed in cell): > 1 µM
CC(C)C[C@H](NC(=O)OCCc1cccc(Cl)c1)C(=O)N[C@@H](C[C@@H]1CCNC1=O)C(=O)COc1c(F)c(F)cc(F)c1F [Compound 138, 3-chlorophenethyl ((S)-4-methyl-1-oxo-1-(((S)-3-oxo-1-((S)-2-oxopyrrolidin-3-yl)-4-(2,3,5,6-tetrafluorophenoxy)butan-2-yl)amino)pentan-2-yl)carbamate]	–	–	EC50 (cells given as a bound): > 1 µM
CCNC(=O)C(=O)N1CC2(CC2)C[C@H]1C(=O)N[C@@H](C[C@@H]1CCNC1=O)C(=O)COC(F)(F)F [Compound 749, (S)-5-(2-(ethylamino)-2-oxoacetyl)-N-((S)-3-oxo-1-((S)-2-oxopyrrolidin-3-yl)-4-(trifluoromethoxy)butan-2-yl)-5-azaspiro[2.4]heptane-6-carboxamide]	0.05 to 0.2 µM	–	–
CC(C)C[C@@H](O)C(=O)N1C[C@H](C)C[C@H]1C(=O)N[C@@H](C[C@@H]1CCNC1=O)C(=O)COC(F)(F)F [Compound 753, (2S,4R)-1-((R)-2-hydroxy-4-methylpentanoyl)-4-methyl-N-((S)-3-oxo-1-((S)-2-oxopyrrolidin-3-yl)-4-(trifluoromethoxy)butan-2-yl)pyrrolidine-2-carboxamide]	< 0.05 µM	–	–
CC(C)C[C@H](NC(=O)C(=O)NC12CC(C1)C2)C(=O)N[C@@H](C[C@@H]1CCNC1=O)C(=O)COC(F)(F)F [Compound 191, N1-(bicyclo[1.1.1]-pentan-1-yl)-N2-((S)-4-methyl-1-oxo-1-(((S)-3-oxo-1-((S)-2-oxopyrrolidin-3-yl)-4-(trifluoromethoxy)butan-2-yl)amino)pentan-2-yl)oxalamide]	–	< 0.05 µM	–
O=C(N[C@@H](C[C@@H]1CCNC1=O)C(=O)COC(F)(F)F)C1CCCCN1C(=O)[C@@H](O)c1ccccc1 (stereo partly drawn) [Compound 769, l-((S)-2-hydroxy-2-phenylacetyl)-N-((S)-3-oxo-1-((S)-2-oxopyrrolidin-3-yl)-4-(trifluoromethoxy)butan-2-yl)piperidine-2-carboxamide]	< 0.05 µM	–	–
O=C(Nc1ccccc1F)C(=O)N1CC[C@H]1C(=O)N[C@@H](C[C@@H]1CCNC1=O)C(=O)COC(F)(F)F [Compound 583, (S)-1-(2-((2-fluoro-phenyl)amino)-2-oxoacetyl)-N-((S)-3-oxo-1-((S)-2-oxopyrrolidin-3-yl)-4-(trifluoromethoxy)butan-2-yl)azetidine-2-carboxamide]	0.05 to 0.2 µM	–	–
CC(C)(C)NC(=O)C(=O)N1C[C@@H]2C[C@@H]2[C@H]1C(=O)N[C@@H](C[C@@H]1CCNC1=O)C(=O)COC(F)(F)F [Compound 493, (1S,2S,5R)-3-(2-(tert-butylamino)-2-oxoacetyl)-N-((S)-3-oxo-1-((S)-2-oxopyrrolidin-3-yl)-4-(trifluoromethoxy)butan-2-yl)-3-azabicyclo[3.1.0]-hexane-2-carboxamide]	0.2 to 0.5 µM	–	–
Cc1ccccc1NC(=O)C(=O)N[C@@H](Cc1ccccc1)C(=O)N[C@@H](C[C@@H]1CCNC1=O)C(=O)COc1c(F)c(F)cc(F)c1F [Compound 106, N1-((S)-1-oxo-1-(((S)-3-oxo-1-((S)-2-oxopyrrolidin-3-yl)-4-(2,3,5,6-tetrafluorophenoxy)butan-2-yl)amino)-3-phenylpropan-2-yl)-N2-(o-tolyl)oxalamide]	–	< 0.05 µM	–
O=C(NC1CC(F)(F)C1)C(=O)N1C[C@@H]2CCC[C@@H]2[C@H]1C(=O)N[C@@H](C[C@@H]1CCNC1=O)C(=O)COC(F)(F)F [Compound 523, (1S,3aR,6aS)-2-(2-((3,3-difluorocyclobutyl)-amino)-2-oxoacetyl)-N-((S)-3-oxo-1-((S)-2-oxopyrrolidin-3-yl)-4-(trifluoromethoxy)butan-2-yl)octahydrocyclo-penta[c]pyrrole-1-carboxamide]	< 0.05 µM	–	–
